Paper PMC10824666 (Nature Cancer, 2023)
Where two headings read alike, the source gives them in different places.

Assays:
Assay in all cases: biochemical
Set-up in all cases: Eurofins DiscoverX kinase panel, competitive binding assay at 1 uM, percent of DMSO control
Settings in all cases: competitive binding, percent of DMSO control
WEE1 = WEE1 (Homo sapiens, UniProt P30291)
How it was run: (§1)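 Single-point profiling at 1 µM compound in a competition-binding format against 96 kinases, read out as POC relative to control; n = 1.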

MLTK = molecular target: T1, MLTK (Homo sapiens, UniProt Q9NYL2)
T1 construct: gene MAP3K20
T1 sequence (Q9NYL2 whole entry): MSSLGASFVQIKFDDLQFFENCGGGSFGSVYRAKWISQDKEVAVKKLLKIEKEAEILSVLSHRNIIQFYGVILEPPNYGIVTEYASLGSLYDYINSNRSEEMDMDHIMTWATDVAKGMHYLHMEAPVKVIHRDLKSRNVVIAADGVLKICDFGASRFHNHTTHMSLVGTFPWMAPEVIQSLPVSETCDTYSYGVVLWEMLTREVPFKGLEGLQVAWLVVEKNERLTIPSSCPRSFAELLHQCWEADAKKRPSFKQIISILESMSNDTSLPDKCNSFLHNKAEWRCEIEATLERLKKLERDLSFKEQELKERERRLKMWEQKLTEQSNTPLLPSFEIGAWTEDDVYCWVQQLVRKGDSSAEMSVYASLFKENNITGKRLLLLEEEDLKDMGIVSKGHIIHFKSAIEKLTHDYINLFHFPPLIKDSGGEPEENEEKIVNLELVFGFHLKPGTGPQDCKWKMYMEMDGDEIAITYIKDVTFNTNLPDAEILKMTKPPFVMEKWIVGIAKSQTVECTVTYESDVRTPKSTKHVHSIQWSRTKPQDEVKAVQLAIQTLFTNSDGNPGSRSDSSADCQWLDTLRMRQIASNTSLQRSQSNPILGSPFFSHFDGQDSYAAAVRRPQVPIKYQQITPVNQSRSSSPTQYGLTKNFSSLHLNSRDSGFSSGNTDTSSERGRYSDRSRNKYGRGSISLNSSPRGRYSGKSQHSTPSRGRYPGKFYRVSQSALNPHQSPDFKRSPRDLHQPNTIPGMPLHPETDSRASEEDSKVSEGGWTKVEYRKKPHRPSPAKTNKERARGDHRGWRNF
How it was run: as §1

CHK1 = molecular target: T2, CHK1 (Homo sapiens, UniProt O14757)
T2 construct: gene CHEK1
T2 sequence (O14757 1-476): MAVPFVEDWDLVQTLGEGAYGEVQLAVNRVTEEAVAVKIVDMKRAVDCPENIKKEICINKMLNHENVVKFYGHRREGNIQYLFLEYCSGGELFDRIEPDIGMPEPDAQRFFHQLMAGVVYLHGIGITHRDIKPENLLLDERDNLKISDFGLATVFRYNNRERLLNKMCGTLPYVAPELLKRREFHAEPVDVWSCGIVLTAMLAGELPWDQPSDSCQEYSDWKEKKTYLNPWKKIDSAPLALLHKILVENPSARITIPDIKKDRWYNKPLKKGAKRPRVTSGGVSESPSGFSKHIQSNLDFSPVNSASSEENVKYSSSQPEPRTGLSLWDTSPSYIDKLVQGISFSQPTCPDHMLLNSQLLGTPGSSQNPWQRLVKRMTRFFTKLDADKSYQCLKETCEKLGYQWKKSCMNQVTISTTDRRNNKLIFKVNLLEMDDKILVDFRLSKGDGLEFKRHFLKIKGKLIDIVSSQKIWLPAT
How it was run: as §1

Mps1 = molecular target: T3, Mps1 (Homo sapiens, UniProt P33981)
T3 construct: gene TTK
T3 sequence (P33981 1-857): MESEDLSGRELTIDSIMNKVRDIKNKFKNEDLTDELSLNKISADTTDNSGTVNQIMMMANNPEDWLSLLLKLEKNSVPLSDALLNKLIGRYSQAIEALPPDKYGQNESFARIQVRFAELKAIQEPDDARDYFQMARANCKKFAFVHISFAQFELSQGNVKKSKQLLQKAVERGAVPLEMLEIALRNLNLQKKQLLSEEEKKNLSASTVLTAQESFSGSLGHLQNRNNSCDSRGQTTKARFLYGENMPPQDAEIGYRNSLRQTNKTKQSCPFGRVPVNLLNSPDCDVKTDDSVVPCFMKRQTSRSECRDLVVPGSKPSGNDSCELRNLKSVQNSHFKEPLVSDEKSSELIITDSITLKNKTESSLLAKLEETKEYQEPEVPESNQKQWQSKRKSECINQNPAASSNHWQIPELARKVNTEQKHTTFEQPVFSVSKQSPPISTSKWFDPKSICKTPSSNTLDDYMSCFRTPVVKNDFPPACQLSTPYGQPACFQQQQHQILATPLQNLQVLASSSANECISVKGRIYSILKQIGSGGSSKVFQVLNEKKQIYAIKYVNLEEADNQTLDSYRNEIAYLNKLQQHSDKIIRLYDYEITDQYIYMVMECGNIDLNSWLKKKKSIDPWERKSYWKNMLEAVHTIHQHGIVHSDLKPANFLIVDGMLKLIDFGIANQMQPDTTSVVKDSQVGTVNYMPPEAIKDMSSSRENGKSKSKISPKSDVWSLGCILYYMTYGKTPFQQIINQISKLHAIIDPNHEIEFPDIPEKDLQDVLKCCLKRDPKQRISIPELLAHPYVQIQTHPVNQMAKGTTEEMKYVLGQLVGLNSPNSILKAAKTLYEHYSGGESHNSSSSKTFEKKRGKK
How it was run: as §1

[1] = read-out: Kinome Profiling performed by Eurofins DiscoverX / AM-1882, 1.0 µM / POC
[2] = read-out: Kinome Profiling performed by Eurofins DiscoverX / AM-0277, 1.0 µM / POC
[3] = read-out: Kinome Profiling performed by Eurofins DiscoverX / AM-5308, 1.0 µM / POC

Sequence of WEE1 (P30291 whole entry): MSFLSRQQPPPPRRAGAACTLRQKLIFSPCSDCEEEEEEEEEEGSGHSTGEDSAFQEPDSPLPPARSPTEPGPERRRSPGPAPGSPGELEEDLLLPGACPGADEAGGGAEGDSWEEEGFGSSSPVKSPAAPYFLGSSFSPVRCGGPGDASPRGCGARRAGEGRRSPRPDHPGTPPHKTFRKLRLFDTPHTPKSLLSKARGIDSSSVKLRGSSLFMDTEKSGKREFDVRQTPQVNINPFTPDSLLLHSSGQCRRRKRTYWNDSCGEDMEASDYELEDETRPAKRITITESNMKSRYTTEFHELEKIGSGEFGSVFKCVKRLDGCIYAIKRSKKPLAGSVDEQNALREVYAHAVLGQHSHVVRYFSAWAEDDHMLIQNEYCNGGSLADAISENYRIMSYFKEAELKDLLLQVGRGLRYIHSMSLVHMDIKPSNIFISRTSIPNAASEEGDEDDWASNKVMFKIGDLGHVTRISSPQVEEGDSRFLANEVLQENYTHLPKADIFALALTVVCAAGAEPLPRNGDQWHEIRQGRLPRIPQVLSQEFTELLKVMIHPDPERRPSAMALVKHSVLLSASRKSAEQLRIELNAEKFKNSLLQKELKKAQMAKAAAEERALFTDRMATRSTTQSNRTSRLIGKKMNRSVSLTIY

CC(C)(C)NS(=O)(=O)c1cccc(NC(=O)c2ccc(S(=O)(=O)NC(C)(C)C)cc2N2CCC3(CC2)CC3)c1 [AM-1882]
remaining activity at 1 µM (WEE1; [1]): 50%
remaining activity at 1 µM (MLTK; [1]): 84.5%
remaining activity at 1 µM (CHK1; [1]): 100%
remaining activity at 1 µM (Mps1; [1]): 97%

CC(C)(CO)Nc1ccc(C(=O)Nc2cccc(S(=O)(=O)C3CCCC3)c2)c(N2CCC3(CC2)CC3)n1 [AM-0277]
remaining activity at 1 µM (WEE1; [2]): 100%
remaining activity at 1 µM (MLTK; [2]): 90%
remaining activity at 1 µM (CHK1; [2]): 100%
remaining activity at 1 µM (Mps1; [2]): 76%

C[C@@H]1CN(c2cccc(NC(=O)c3ccc(NS(=O)(=O)CCO)cc3N3CCC4(CC3)CC4)n2)CCO1 [AM-5308]
remaining activity at 1 µM (WEE1; [3]): 100%
remaining activity at 1 µM (MLTK; [3]): 100%
remaining activity at 1 µM (CHK1; [3]): 100%
remaining activity at 1 µM (Mps1; [3]): 47%
